# Where “and” joins values, the source holds several entries; their conditions need not be identical. Equal entries are not always repeated.
# Test system: CT26 murine colon carcinoma cells
# Experiment: CT26 Tumor Size Assay (Example 2)
# Assay type: in vivo, BALB/c mice
# Conditions: for Median TTE: 39-day study
# Method: The animals were fed ad libitum water (reverse osmosis, 1 ppm CI) and NIH 31 Modified and Irradiated Lab Diet® consisting of 18.0% crude protein, 5.0% crude fat, and 5.0% crude fiber. The mice were housed on irradiated Enrich-o'Cobs™ bedding in static microisolators on a 12-hour light cycle at 20-22° C. (68-72° F.) and 40-60% humidity.
# CT26 murine colon carcinoma cells were grown in RPMI-1640 medium containing 10% fetal bovine serum, 2 mM glutamine, 100 units/mL penicillin G sodium, 100 μg/mL streptomycin sulfate, and 25 μg/mL gentamicin. The cells were cultured in tissue culture flasks in a humidified incubator at 37° C., in an atmosphere of 5% CO2 and 95% air.
# The CT26 colon cells used for implantation were harvested during log phase growth and re-suspended in cold PBS. Each mouse was injected subcutaneously in the right flank with 3×10^5 tumor cells (0.1 mL cell suspension) and tumors were monitored as their volumes approached the target range of 75 to 125 mm3. Fourteen days after tumor implantation, on Day 1 of the study, animals with individual tumor volumes ranging from 75 to 125 mm^3 were sorted into fourteen groups (n=10) with group mean tumor volumes of 118-119 mm3. Tumors were measured with calipers twice weekly in two dimensions.
# where w=width and l=length, in mm, of a tumor. Tumor weight was estimated with the assumption that 1 mg is equivalent to 1 mm3 of tumor volume.
# The compound of formula (I), rat IgG2a (Clone 2A3) (5.55 mg/mL), anti-mCD40 (Clone FGK45) (5.46 mg/mL, purchased from BioXCell, anti-mouse CD40, Clone: FGK45, SKU: 13E0016-2, Lot No. 4699/0614B), and anti-CSF1R (5.41 mg/mL, purchased from BioXCell anti-mouse CSF1R (CD115), Clone: AFS98, SKU: BE0213, Lot No. 5248/0814) were used as test compounds, alone and in combination. The compound of formula (I) was stored at room temperature and antibody stock solutions were stored at 4° C. upon receipt.
# Each week of dosing, the compound of formula (I) was dissolved in 0.5% HPMC to yield a 1.0 mg/mL dosing solution. The dosing solution was stored at 4° C., protected from light. The rat IgG2a isotype and anti-CSF1R dosing solutions were prepared fresh each day by diluting aliquots of the stock solutions with PBS to yield 1.0 mg/mL dosing solutions. The dosing solutions were stored at 4° C., protected from light. The anti-mCD40 dosing solution was prepared fresh each day by diluting an aliquot of the stock solution with PBS to yield a 0.5 mg/mL dosing solution. The dosing solution was stored at 4° C., protected from light.
# On Day 1 of the study, fourteen groups of BALB/c mice (n=10) began dosing according to the following protocol.
# The vehicle (0.5% HPMC) and the compound of formula (I) were administered orally (p.o.). The rat IgG2a isotype control, anti-mCD40, and anti-CSF1R were administered intraperitoneally (i.p.). Rat IgG2a(2A3), the compound of formula (I) and the anti-CSF1R were administered at 10 mg/kg. The anti-mCD40 was administered at 5 mg/kg. The dosing volume for all animals was 10 mL/kg (0.2 mL per 20-g mouse) and was adjusted for body weight.
# Tumors were measured using calipers twice per week. The study endpoint was originally defined as a mean tumor volume of 1500 mm^3 in the control group or 60 days, whichever came first. Day 15 was chosen for TGI analysis. The MTV (n), the median tumor volume for the number of animals, n, on Day 15, was determined for each group. Percent tumor growth inhibition (% TGI) was defined as the difference between the MTV of the designated control group (Group 1) and the MTV of the drug-treated group, expressed as a percentage of the MTV of the control group: […]
# The data set for TGI analysis includes all animals in a group, except those that die due to treatment-related (TR) or non-treatment-related (NTR) causes.
# Animals were monitored individually for tumor growth until Day 39. The study protocol specified a tumor growth delay assay based on the median time-to-endpoint (TTE) in a treated group versus the control group. […]
# [1] = Groups 3-7: all dosing from Day 1 (antibodies i.p. Days 1, 5, 9, formula (I) p.o. bid×14), formula (I) and anti-CSF1R 10 mg/kg, anti-mCD40 5 mg/kg, vs rat IgG2a control Group 1
# [2] = Groups 9, 11, 13, 14: formula (I) 10 mg/kg p.o. bid×14 beginning Day 4 or anti-CSF1R 10 mg/kg i.p. Days 4, 8, 12, in combinations anti-mCD40 5 mg/kg i.p. Days 1, 5, 9, vs rat IgG2a control Group 1
compound,measurement,setting,value
"CC1(C)CC=C(c2nc(C3CC(C)(C)OC(C)(C)C3)ccc2NC(=O)c2nc(C#N)c[nH]2)CC1 [compound of formula (I), 4-cyano-N-(2-(4,4-dimethylcyclohex-1-en-1-yl)-6-(2,2,6,6-tetramethyltetrahydro-2H-pyran-4-yl)pyridin-3-yl)-1H-imidazole-2-carboxamide]",MTV (n) Day 15,"Day 15, Groups 3-7: all dosing from Day 1 (antibodies i.p. Days 1, 5, 9, formula (I) p.o. bid×14), formula (I) and anti-CSF1R 10 mg/kg, anti-mCD40 5 mg/kg",1913 mm^3
same,MTV (n) Day 15,"Day 15, Groups 9, 11, 13, 14: formula (I) 10 mg/kg p.o. bid×14 beginning Day 4 or anti-CSF1R 10 mg/kg i.p. Days 4, 8, 12, in combinations anti-mCD40 5 mg/kg i.p. Days 1, 5, 9",1545 mm^3 and 1545 (8) mm^3
same,% TGI,"Day 15, vs rat IgG2a control Group 1, Groups 3-7: all dosing from Day 1 (antibodies i.p. Days 1, 5, 9, formula (I) p.o. bid×14), formula (I) and anti-CSF1R 10 mg/kg, anti-mCD40 5 mg/kg",23%
same,% TGI,"Day 15, vs rat IgG2a control Group 1, Groups 9, 11, 13, 14: formula (I) 10 mg/kg p.o. bid×14 beginning Day 4 or anti-CSF1R 10 mg/kg i.p. Days 4, 8, 12, in combinations anti-mCD40 5 mg/kg i.p. Days 1, 5, 9",38%
same,Median TTE,"Groups 3-7: all dosing from Day 1 (antibodies i.p. Days 1, 5, 9, formula (I) p.o. bid×14), formula (I) and anti-CSF1R 10 mg/kg, anti-mCD40 5 mg/kg, 1500 mm^3 endpoint",13.0 days
same,% TGD,[1],7%
same,T-C,[1],0.9 days
same,Median TTE,"Groups 9, 11, 13, 14: formula (I) 10 mg/kg p.o. bid×14 beginning Day 4 or anti-CSF1R 10 mg/kg i.p. Days 4, 8, 12, in combinations anti-mCD40 5 mg/kg i.p. Days 1, 5, 9, 1500 mm^3 endpoint",13.9 days
same,% TGD,[2],15%
same,T-C,[2],1.8 days
